Earlier results, collected in US6759057B1, “Methods and compositions using liposome-encapsulated non-steroidal anti-inflammatory drugs” (The Liposome Company, Inc., priority 1986, dated 2004).

Test system: rat stomach mucosa
Settings: rats dosed with Prostaglandin E2

For `CCCCC[C@H](O)/C=C/[C@H]1[C@H](O)CC(=O)[C@@H]1C/C=C\CCCC(=O)O` [Prostaglandin E2], the “increase in the major gastric surface protective surfactant” value is given as 2-6 fold.
